Experiments:
[1] = tested on: human ovarian tumor cell xenografts; conditions: nude mice; Pizer, et al. (1996); cited from earlier work
breast cancer cells = conditions: Pizer, et al. (1996); cited from earlier work
[2] = tested on: lipogenic prostate cancer cells; conditions: Kridel, et al. (2004); cited from earlier work
[3] = tested on: lipogenic prostate cancer cells xenografts; conditions: immunodeficient mice; Kridel, et al. (2004); cited from earlier work
human FAS gene promoter = test: Human FAS gene promoter fragment luciferase reporter; type: cell-based; conditions: 48 hours exposure
Procedure: (§1) Using a human S14 gene promoter fragment fused to a luciferase reporter, the mechanism underlying R1881-induced accumulation of S14 mRNA was determined. The human S14 construct contained the proximal 4003 bp of the S14 promoter (Campbell, et al. (2003) Endocrinol. 144:5242-5248). […] Nevertheless, R1881 induced promoter activity by 4-fold. Employing a 157 bp fragment of the human FAS gene promoter that is also devoid of progesterone response elements (Swinnen, et al. (1997) supra), the effect of R1881 on FAS gene expression was examined.
(§2) T47D or HEK 293 cells were plated at 50% confluence in 75 cm^2 flasks and the next morning were transfected with 8 μg plasmid DNA in 48 μL FUGENE (Roche, Indianapolis, Ind.) in 5% charcoal-stripped serum-containing media without antibiotics. To ensure uniform transfection efficiency, cells were trypsinized, mixed, and redistributed into 6-well plates 8 hours later. Forty-eight hours post-transfection, culture medium was removed, and extracts prepared in reporter lysis buffer (250 μL/well; PROMEGA, Madison, Wis.). Lysates (20 μL) were assessed for luciferase activity using an LMaxII384 luminometer (MOLECULAR DEVICES, Sunnyvale, Calif.), and normalized to protein concentrations (BCA Protein Assay; Pierce, Rockland, Ill.).

S14 mRNA [4] = test: Real-time RT-PCR of S14 mRNA in T47D cells
SREBP-1c mRNA = test: Real-time RT-PCR of SREBP-1c mRNA in T47D cells; conditions: 10 nM, within 48 hours, cyclophilin as control
S14 mRNA [5] = conditions: Heemers, et al. (2000); cited from earlier work
FAS mRNA = test: Real-time RT-PCR of FAS mRNA in T47D cells
S14 protein = test: Western blot of S14 protein in T47D cells; conditions: single stimulus; R1881 10 nM 48 hours or adenovirus alone
human S14 gene promoter = test: Human S14 gene promoter fragment luciferase reporter; type: cell-based; conditions: proximal 4003 bp of human S14 promoter fused to luciferase
Procedure: as §1, §2

[6] = 10 nM, within 48 hours, T47D cells, cyclophilin as control
[7] = time course using nM R5020, T47D cells

C/C=C/C/C=C/CCC(=O)[C@H]1O[C@H]1C(N)=O [Cerulenin]
growth of human ovarian tumor cell xenografts [1]: inhibit the growth | apoptosis of breast cancer cells (breast cancer cells): cause apoptosis

CCCCCCCCCCC[C@@H](C[C@@H]1OC(=O)[C@H]1CCCCCC)OC(=O)[C@H](CC(C)C)NC=O [Orlistat]
apoptosis of lipogenic prostate cancer cells in culture [2]: causes apoptosis | apoptosis of lipogenic prostate cancer cells in xenografts [3]: causes apoptosis

C[C@]1(O)CC[C@H]2[C@@H]3CCC4=CC(=O)CCC4=C3C=C[C@@]21C [R1881]
FAS promoter induction (human FAS gene promoter; 157 bp fragment of human FAS gene promoter): 4 fold | FAS promoter response, construct with sterol response element deleted (human FAS gene promoter): markedly reduced | S14 mRNA induction (S14 mRNA [4]; [6]): significantly induced | S14 mRNA induction by R1881 in presence of control adenovirus (Ad-β-gal) (S14 mRNA [4]; R1881 10 nM, RNA harvested 40 hours later, MOI 50): ~8 fold | SREBP-1c mRNA induction (SREBP-1c mRNA): significantly induced | S14 mRNA induction in T47D cells (S14 mRNA [5]): significantly induces | FAS mRNA induction (FAS mRNA; [6]): significantly induced | FAS mRNA induction by R1881 in presence of Ad-β-gal (FAS mRNA; T47D cells): ~2 fold | S14 protein (~16 kD band) on western blot (S14 protein): faint band | S14 promoter activity induction (human S14 gene promoter): 4 fold

CCC(=O)[C@@]1(C)CC[C@H]2[C@@H]3CCC4=CC(=O)CCC4=C3CC[C@@]21C [R5020]
S14 mRNA induction, time course (S14 mRNA [4]; [7]): comparable to that observed with R1881 | lag time between application of the hormone and onset of accumulation of S14 mRNA (S14 mRNA [4]; time course, T47D cells): > 10 h | S14 mRNA induction in T47D cells (S14 mRNA [5]): significantly induces | FAS mRNA induction, time course (FAS mRNA; [7]): comparable to that observed with R1881 | lag time between application of the hormone and onset of accumulation of FAS mRNA (FAS mRNA; time course, T47D cells): > 10 h
